Data taken from patent US7910141B2, “Antiallergic composition” (Sapporo Breweries Limited, priority 2005, dated 2011).
Structures can show the parent of a compound that is named as a salt.

System: ICR mice
Assay: DNP-HSA-induced auricular edema in mice (passive cutaneous anaphylaxis)
Assay type: in vivo, mouse
Details: FIG. 8 experiment
Procedure: Inhibiting Action of Hop Water Extract on DNP-HSA-Induced Auricular Edema in Mice: • Six-week-old ICR mice (male or female; Charles River Laboratories, Japan Inc.) were separated into 4-5 per cage and raised at room temperature (24±2° C.) and 55±15% humidity, with a 12 hour light/dark cycle (light: 8:00-20:00). After preparatory rearing for at least one week, they were provided for the test. A hop pellet water extract, hop leaf water extract or ketotifen fumarate aqueous solution (10 mL/kg) was forcedly administered orally to each test group, while 10 mL/kg of distilled water was forcedly administered orally to the control group. The hop pellet water extract was prepared by adding hop pellets (Czech Saaz) to distilled water to 10% (w/w) and extracting overnight at 4° C., and then centrifuging at 3000 rpm for 10 minutes and filtering. The hop leaf water extract was prepared by adding dry hop leaves (Kokusan hop young leaves) to distilled water to 10% (w/w) and extracting overnight at 4° C., and then centrifuging at 3000 rpm for 10 minutes and filtering. The ketotifen fumarate aqueous solution was prepared by dissolving in distilled water to a concentration of 0.5 mg/mL.
At 1 hour after oral administration, 20 μL of 10 μg/mL mouse anti-DNP-IgE antibody (Sigma) was intradermally injected into one auricle of each mouse, while 20 μL of physiological saline (PS) was intradermally injected into the other auricle. […] The auricular thickness before antigen administration and 30 minutes after antigen administration was measured three times each using a thickness gauge, and the auricular edema ratio and auricular thickness increase were determined. […] The auricular edema ratio (%) was calculated by the formula: (Mean auricular thickness 30 minutes after antigen administration−mean auricular thickness before antigen administration)×100/mean auricular thickness […], and the auricular thickness increase (mm) was calculated by the formula: Mean auricular thickness 30 minutes after antigen administration−mean auricular thickness before antigen administration.

[1] = oral 10 mL/kg, intradermal injection of IgE antibody, 30 minutes after antigen

CN1CCC(=C2c3ccccc3CC(=O)c3sccc32)CC1 [ketotifen fumarate]
auricular edema ratio compared to the distilled water-administered group (t-test) (ketotifen p<0.05, hop extracts p value of 0.08, critical region 5%): significantly inhibited
auricular edema ratio [1]: 12.7±5.4%
auricular thickness increase [1]: 0.045±0.020 mm
